Assay results from patent US8951734B2, “Prion-like form of CPEB and related compositions and methods” (priority 2003, dated 2015).
*1 amine or outer side, *2 acyl side, *3 side chain or, on linkers, in order; H or OH if unused. Where a SMILES comes first, the peptide text is derived from it. Bridges are numbered along the chain shown (N, C = ends). Roman numbers before positions name the chains, in order. [ ]: non-standard residue; d: D form. Actinocin(9to1) = Cc1c2oc3c(C)ccc(C(=O)[*:1])c3nc-2c(C(=O)[*:2])c(N)c1=O; NMeV = CN[C@H](C(=O)O)C(C)C; Sar = CNCC(=O)O

Legend:
[1] = test system: ApCPEB; assay: ApCPEB protein induction in isolated pleural ganglia / sensory cell clusters stimulated with 5-HT, with or without pharmacological agents (Western blot); assay type: cell-based, Aplysia; conditions: for effect on 5-HT induction of ApCPEB: pretreatment
Description: (§1) Aplysia weighing 80-100 grams were used for serotonin (5-HT) stimulation. For whole animal stimulation, the animals were stimulated for 1-1.5 hr at 17° C. with 100 uM of freshly prepared serotonin (Sigma) and then moved to sea water at 17° C. At designated times the pleural ganglia were dissected out. The dissection was carried out in ice cold seawater and frozen in a dry ice-ethanol bath. To apply different pharmacological agents, the pleural ganglia were dissected out and rested for 3-4 hrs at 17° C. before initiation of the treatment. The pleural ganglia were stimulated with 10 uM serotonin instead of 100 uM.
(§2) For western blotting pleural ganglia were homogenized in a buffer containing 600 mM KCl, 10 mM HEPES (7.4), 3 mM MgCl2, 1 mM DTT, and 0.2% NP-40; rotated at 4° C. for 20 min, centrifuged at 14,000×g for 10 min and the supernatant was collected. Approximately 10 ug of total protein was separated on a 10% SDS-PAGE gel and transferred to PVDF membrane. The membranes were blotted with affinity purified CPEB 533 (1:4000), rabbit affinity purified Aplysia Ubiquitin hydrolase (1:1500), rabbit anti-synaptophysin (Zymed) (1:3000), mouse anti-human Hsp70 (1:4000) (BD Biosciences) or monoclonal anti-tubulin (1:3000) (Sigma) followed by incubation with 1:10,000 dilution of HRP coupled anti-rabbit or anti-mouse secondary antibody (Cell signaling) and visualized by chemiluminescence (Pierce chemical). For peptide competition the CPEB77 antibody was preincubated with the peptide (1:20 w/w) at 4° C. for 30 min.

[2] = test system: ApCPEB; assay: ApCPEB immunostaining in isolated sensory neurites (cell bodies severed); assay type: cell-based, Aplysia
Description: (§3) Following stimulation with serotonin, the cells were washed with filtered seawater and then fixed with freshly prepared 4% paraformaldehyde (PFA) in phosphate-buffered saline (PBS) plus 30% sucrose at 37° C. for 20 min. After fixation, cells were washed three times with PBS and incubated with 0.5% saponin (for isolated neurites) or 0.1% Triton X-100 (for one pulse of serotonin in the neurites) in PBS for 10 min at room temperature (RT). Subsequently cells were washed with PBS three times and excess PFA was quenched by incubating the cells in 50 mM NH4Cl in PBS for 15 min at RT. The fixed cells were blocked with a mixture of heat-inactivated 10% horse serum and 1% goat serum in PBS for 2 hr at RT, then in 1:30 dilution of affinity purified CPEB77 (for isolated neurites) or 1:100 dilution of 463 (for one pulse of serotonin in the synapse) overnight at 4° C. Next day cells were washed three times (20 min each wash) with PBS at RT before incubating with goat anti-rabbit secondary antibody conjugated with Alexa Fluor 488 (1:1000) (Molecular Probes) for 2 hr at room temperature. After three 15 min rinses with PBS cells were mounted on Fluoromount and pictures were taken at Zeiss Axiovert S-100 at 40× magnification using the program Metamorph.

[3] = test system: ApCPEB mRNA; assay: Semi-quantitative RT-PCR of ApCPEB mRNA in sensory cells of pleural ganglia; assay type: cell-based, Aplysia
[4] = test system: N-actin mRNA; assay: Poly-A tail length (PAT) assay of N-actin mRNA after whole-animal serotonin stimulation; assay type: in vivo, Aplysia
Description: The polyA test (PAT) to measure the length of the polyA tail of CPEB mRNA was essentially done as described by Salles and Strickland (1999). Total RNA from the plural ganglia was digested with DNase1 and phenol: chloroform extracted. 3 ug of total RNA was reverse transcribed with 200 ng of AdT primer (5′-[…]-3′) (SEQ ID NO:23) using AMV reverse transcriptase. 2 ul of the cDNA was amplified with Taq polymerase using AdT and N-actin primer 5′-[…]-3′ (SEQ ID NO:17) in the PCR cycle: 94° C. 30 sec, 60° C. 1 min and 72° C. 1 min, 5 sec/cycle for 30 cycles. To check the amount of sensorin, Bmp1 and N-actin, the following primer pairs were used; sensorin-5′-AACAGAAACAGTC-TTTCCCCC-3′ (SEQ ID NO:24) and 5′-TCTTGACTCACCAACTGCC-3′ (SEQ ID NO:25), Bmp1-5′-ATCTATCGCCTATT-ATTATCACCA-3′ (SEQ ID NO:26) and 5′-[…]-3′ (SEQ ID NO:27), N-actin 5′-CCCATCCAT-TGTCCACA-3′ (SEQ ID NO:28) and 5′-TTTGAGCATTCTGGCTTC-3′(SEQ ID NO:29).

[5] = test system: ApCPEB; assay: ApCPEB immunostaining in bifurcated sensory-motor culture, one branch stimulated with a single pulse of 5-HT; assay type: cell-based, Aplysia; conditions: 10 uM 5-HT for 50 seconds to one branch; fixed after one hour; n=10
Description: as §3, with “Metamorph. […]” for “Metamorph.”

[6] = test system: sensory-motor neuron synapses; conditions: cited from earlier work
[7] = test system: ApCPEB; assay: ApCPEB protein in pleural ganglia after whole-animal serotonin exposure (Western blot); assay type: in vivo, Aplysia
Description: as §1, §2

[8] = whole animal serotonin exposure then seawater

SMILES: CC[C@H](C)[C@@H]1NC(=O)CNC(=O)[C@@H]2Cc3c([nH]c4cc(O)ccc34)[S+]([O-])C[C@@H](NC(=O)CNC1=O)C(=O)N[C@@H](CC(N)=O)C(=O)N1C[C@H](O)C[C@H]1C(=O)N[C@@H]([C@@H](C)[C@@H](O)CO)C(=O)N2 (stereo in doubt) [α-amanitin]
- effect on 5-HT induction of ApCPEB ([1]; 50 ug/ml): did not block

SMILES: CCCCCCOC(=O)[C@]1(O)C[C@@H]2O[C@@]1(C)n1c3ccccc3c3c4c(c5c6ccccc6n2c5c31)C(=O)NC4 [KT5720]
- effect on serotonin induced increase in ApCPEB ([1]; PKA inhibitor pretreatment of sensory clusters, 30 min): did not block

SMILES: Nc1ncnc2c1ncn2[C@@H]1O[C@@H]2COP(O)(=S)O[C@H]2[C@H]1O (stereo partly drawn) [SpcAMP]
- level of ApCPEB ([1]; activation of PKA by cell permeable cAMP analog, data not shown): did not change

SMILES: Cc1c2oc3c(C)ccc(C(=O)N[C@@H]4C(=O)N[C@H](C(C)C)C(=O)N5CCC[C@H]5C(=O)N(C)CC(=O)N(C)[C@@H](C(C)C)C(=O)O[C@@H]4C)c3nc-2c(C(=O)N[C@@H]2C(=O)N[C@H](C(C)C)C(=O)N3CCC[C@H]3C(=O)N(C)CC(=O)N(C)[C@@H](C(C)C)C(=O)O[C@@H]2C)c(N)c1=O [actinomycin D] (I: T[dV]P[Sar][NMeV] / II: T[dV]P[Sar][NMeV]; ester I:1-I:C, II:1-II:C; linker I:N-II:N via Actinocin(9to1))
- effect on 5-HT induction of ApCPEB ([1]; 10 ug/ml): did not block

SMILES: COc1ccc2c(c[n+](C)c3c4cc5c(cc4ccc23)OCO5)c1OC [chelerythrine]
- effect on serotonin dependent increase of ApCPEB protein ([1]; PKC inhibitor, 10 uM): did not affect

SMILES: C[C@@H]1C[C@@H]([C@H](O)CC2CC(=O)NC(=O)C2)C(=O)[C@@H](C)C1 [cycloheximide]
- effect on 5-HT induction of ApCPEB protein ([1]; 40 uM): reduced

SMILES: CC[C@H]1CN2CCc3cc(OC)c(OC)cc3[C@@H]2C[C@@H]1C[C@H]1NCCc2cc(OC)c(OC)cc21 [emetine]
- effect on 5-HT induction of ApCPEB protein ([1]; 100 uM): reduced

SMILES: CO[C@H]1C[C@@H]2CC[C@@H](C)[C@@](O)(O2)C(=O)C(=O)N2CCCC[C@H]2C(=O)O[C@H]([C@H](C)C[C@@H]2CC[C@@H](O)[C@H](OC)C2)CC(=O)[C@H](C)/C=C(\C)[C@@H](O)[C@@H](OC)C(=O)[C@H](C)C[C@H](C)/C=C/C=C/C=C/1C [rapamycin]
- average fluorescence intensity (ApCPEB immunoreactivity) ([2]; neurites stimulated with 5-HT in presence of 20 nM rapamycin, n=9): 0.77±0.1

SMILES: NCCc1c[nH]c2ccc(O)cc12 [serotonin]
- average fluorescence intensity (ApCPEB immunoreactivity) in stimulated neurites ([2]; 10 uM 5-HT bath application 1 hr, n=8): 9.37±0.73
- amount of ApCPEB mRNA, treated versus untreated [3]: no significant difference
- duration of increased poly(A) tail of N-actin ([4]; whole-animal stimulation): at least 4 hours
- increase of poly(A) tail of N-actin ([4]; within an hour after initiation of treatment): 200-400 nucleotides
- average fluorescence intensity (ApCPEB immunoreactivity) in treated branch [5]: 53.3±8.7
- duration of long-term facilitation (LTF) ([6]; five pulses (Martin et al. 1997)): three or more days
- duration of synapse-specific short-term facilitation ([6]; single pulse to one of two sets of synapses (Martin et al. 1997)): lasts for minutes
- average fold induction of ApCPEB ([1]; 5-HT for an hour, western blots scanned and quantified with NIH image, controls of inhibitor sets (FIG. 5d)): 3.3±0.4
- increase of total CPEB content ([1]; isolated pleural ganglia, 10 uM 5-HT): 3-4 fold
- increase in total ApCPEB protein content ([1]; sensory cell clusters, 10 uM 5-HT for 10 min, then seawater 50 min): 4-5 fold
- increase of total content of ApCPEB ([7]; whole animal exposed to serotonin for one hour, thirty minutes after initiation of treatment, pleural ganglia extract): 4 to 5 fold
- persistence of increased level of ApCPEB [7, 8]: about 3 hours
- return of ApCPEB to basal levels [7, 8]: returned to basal levels after five hours
